Results published in patent publication US20220305051A1 (priority 2019, published 2022).

Columns and labels:
[1] = tested on: tongue and lung microbiome; design: species or system mice; conditions: mouse, in vivo
[2] = design: species or system mice; conditions: mouse, in vivo
oral NR activity [3] = tested on: oral NR activity; design: species or system mice; conditions: mouse, in vivo
[4] = tested on: C57bl/6 mice exposed to Cl2, Br2 or COCl2; conditions: mouse, in vivo
[5] = mouse, in vivo
P. Aeruginosa = tested on: P. Aeruginosa; design: species or system mice; conditions: mouse, in vivo
[6] = tested on: C57bl/6 mice exposed to Br2; conditions: mouse, in vivo
[7] = tested on: C57bl/6 mice exposed to Br2; conditions: mouse, in vivo; remark: listed apart in the source
oral NR activity [8] = tested on: oral NR activity; design: species or system mice; conditions: mouse, in vivo; remark: listed apart in the source

[H]/N=C(\N/C(=N/[H])NCCCCCCNC(=N)NC(=N)Nc1ccc(Cl)cc1)Nc1ccc(Cl)cc1 [chlorhexidine]
Decrease in abundance of 7 bacteria on the tongue [1]: > 50%
Decrease of the one altered bacterial species in the lung microbiome [1]: ~30%
Decrease of plasma nitrite [2]: 50%
Inhibition of NR activity (oral NR activity [3]): ~70%
Increase in severity of Br2 and COCl2 lung injury [4]: 1.5-2.5 fold
Increase in severity of Cl2 lung injury [4]: close to significant effects
Lung injury, chlorhexidine alone [4]: no effect on lung injury

O=[N+]([O-])O [nitrate]
Plasma nitrite and cGMP [5]: will temporally increase plasma nitrite and cGMP
Plasma nitrite levels [5]: increase

O=NO [nitrite, sodium nitrite]
Protection against ALI and P. aeruginosa infection (P. Aeruginosa): protects against ALI and P. aeruginosa infection
Susceptibility to P. aeruginosa infection (bacterial burden in lung homogenates) (P. Aeruginosa): decreases susceptibility to P. aeruginosa infection
Survival over 10 days (Kaplan Meier) [6]: improved survival early
Decrease of BAL neutrophil [7]: 50%

bromine [Br2]
Bacterial number (CFU) (oral NR activity [8]): not different
NR activity normalized per bacterial number (oral NR activity [8]): significantly inhibited

B1: hemopexin: a heme-scavenger; scavenges free heme (protein, UniProt P02790 24-462, looked up)
Hemopexin: TPLPPTSAHGNVAEGETKPDPDVTERCSDGWSFDATTLDDNGTMLFFKGEFVWKSHKWDRELISERWKNFPSPVDAAFRQGHNSVFLIKGDKVWVYPPEKKEKGYPKLLQDEFPGIPSPLDAAVECHRGECQAEGVLFFQGDREWFWDLATGTMKERSWPAVGNCSSALRWLGRYYCFQGNQFLRFDPVRGEVPPRYPRDVRDYFMPCPGRGHGHRNGTGHGNSTHHGPEYMRCSPHLVLSALTSDNHGATYAFSGTHYWRLDTSRDGWHSWPIAHQWPQGPSAVDAAFSWEEKLYLVQGTQVYVFLTKGGYTLVSGYPKRLEKEVGTPHGIILDSVDAAFICPGSSRLHIMAGRRLWWLDLKSGAQATWTELPWPHEKVDGALCMEKSLGPNSCSANGPGLYLIHGPNLYCYSDVEKLNAAKALPQPQNVTSLLGCTH
Protection against ALI and P. aeruginosa infection (P. Aeruginosa): protects against ALI and P. aeruginosa infection
Survival over 10 days (Kaplan Meier) [6]: improved survival
